Consider 2 substances from patent US20240352145A1, “EFFICACY OF ANTI-TROP-2-SN-38 ANTIBODY DRUG CONJUGATES FOR THERAPY OF TUMORS RELAPSED/REFRACTORY TO CHECKPOINT INHIBITORS” (Immunomedics, Inc., priority 2016, published 2024).

The test system of one assay is metastatic SCLC. The assay is described as follows: Phase I/II, metastatic SCLC cohort. The class given is in vivo, human.
A further assay has as its system MDA-MB-468. The experiment in a line: Cytotoxicity (MTS), Example 7, MDA-MB-468. Format: cell-based, human. As to conditions: MDA-MB-468, 96 h. The procedure: One day prior to adding the ADC, cells were harvested from tissue culture and plated into 96-well plates at 2000 cells per well. […] Plates were incubated at 37° C. for 96 h. […] Growth inhibition was measured as a percent of growth relative to untreated cells using Microsoft Excel and Prism software (non-linear regression to generate sigmoidal dose response curves which yield IC50-values).

Another assay deals with T1, Trop-2 (Homo sapiens, UniProt P09758).
T1 sequence (P09758 27-323): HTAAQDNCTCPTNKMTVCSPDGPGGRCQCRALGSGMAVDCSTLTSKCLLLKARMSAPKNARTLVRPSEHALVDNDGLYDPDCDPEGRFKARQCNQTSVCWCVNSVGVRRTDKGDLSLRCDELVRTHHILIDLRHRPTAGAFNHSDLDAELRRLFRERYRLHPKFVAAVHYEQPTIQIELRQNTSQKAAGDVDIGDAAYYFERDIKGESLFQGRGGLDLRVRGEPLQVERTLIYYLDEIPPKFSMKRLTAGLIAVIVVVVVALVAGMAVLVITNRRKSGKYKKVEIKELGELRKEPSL
The experiment in a line: Trop-2 ELISA, human. Format: binding. On the set-up: purchased Sino Biological, Inc. 10428-H09H. The procedure:
Trop-2 ELISA—Recombinant human Trop-2 with a His-tag (Sino Biological, Inc., Bejing, China; Cat #10428-H09H) and recombinant mouse Trop-2 with a His-Tag (Sino Biological, Inc., Cat #50922-M08H) were plated onto Ni-NTA Hissorb strips (Qiagen GmbH Cat #35023) at 1 μg for 1 h at room temperature. The plate was washed four times with PBS-Tween (0.05%) wash buffer. Serial dilutions of hRS7 were made in 1% BSA-PBS dilution buffer to a test range of 0.1 ng/mL to 10 μg/mL. The plates were then incubated for 2 h at room temperature before being washed four times followed by the addition of a peroxidase conjugated secondary antibody (goat anti-human, Fc fragment specific; Jackson Immunoresearch Cat #109-036-098). After a 45-min incubation, the plate was washed and a substrate solution (o-phenylenediamine dihydrochloride (OPD); Sigma, Cat #P828) added to all the wells. Plates were incubated in the dark for 15 min before the reaction was stopped with 4N sulfuric acid. The plates were read at 450 nm on Biotek ELX808 plate reader. Data were analyzed and graphed using Prism GraphPad Software (v4.03) (Advanced Graphics Software, Inc.; Encinitas, CA).
(In general: An ELISA detects its analyte on a solid surface through an enzyme-linked reagent.)

As a reminder, the IC50 is the midpoint of a concentration-inhibition curve. Low readings indicate greater potency in that assay, high ones weaker potency in that assay. The term Kd denotes the equilibrium constant for the complex coming apart. Read a high Kd as weaker binding.

As for IMMU-132, in the assay with metastatic SCLC (8 mg/kg), the “median OS” value turned out to be 8.1 months and the “median PFS” value stood at 2.0 months. For the same substance, in the assay with metastatic SCLC (10 mg/kg), the “median PFS” value is given as 3.6 months. In the assay with metastatic SCLC (in vivo), the “median time to progression” value was 4.9 months. In addition, half-maximal inhibition with MDA-MB-468 (IC50) was put at 3.9 nM.

hRS7 IgG yielded an equilibrium dissociation constant (Kd) with Trop-2 of 0.3 nM.
